Results from US20190365742A1, “AZOLE TREATMENT REGIMEN WITH REDUCED HEPATOTOXICITY” (HEDGEPATH PHARMACEUTICALS, INC., priority 2018, published 2019).

Assay: plasma concentration of itraconazole required for clinical benefit in humans with cancer
Format: in vivo
Conditions: human, after 4 weeks of therapy, read-out: minimum plasma trough level required to have a clinically significant effect
Procedure: Optionally, the treatment method further comprises measuring the plasma level of the HhP inhibitor, or a metabolite thereof, in the subject one or more times. In some embodiments, the measuring is carried out one or more times about 4 weeks after initiation of treatment with the HhP inhibitor. Observations concerning the desirability of achieving a plasma trough level of at least about 1,000 ng/mL of the HhP inhibitor are described in U.S. Pat. No. 9,192,609 (“Treatment and Prognostic Monitoring of Proliferation Disorders Using Hedgehog Pathway Inhibitors”; Virca and O'Donnell), which is incorporated herein by reference in its entirety.
In particular, the minimum plasma trough level after 4 weeks of therapy required to have a clinically significant effect was at least 1000 ng/ml. […] Nevertheless, there can be side-effects peculiar to such high doses such as hypertension, peripheral edema, and hypokalemia, which seem to be a result of an increased production of mineralocorticoid. These side effects associated with these high doses of itraconazole can be effectively managed by giving a selective mineralocorticoid antagonist, such as eplerenone. Accordingly, in some embodiments, the method further comprises administering eplerenone or other mineralocorticoid inhibitor. […]

concentration at 4 weeks: ≥ 1000 ng/mL
SMILES: CCC(C)n1ncn(-c2ccc(N3CCN(c4ccc(OCC5COC(Cn6cncn6)(c6ccc(Cl)cc6Cl)O5)cc4)CC3)cc2)c1=O (stereo not shown) [itraconazole]
